Laboratory results taken from patent US20080300298A1, “Honokiol Derivates For the Treatment of Proliferative Disorders” (priority 2005, published 2008).
In brackets after ≈: the same amount, converted by molar mass.

Experiments:
normal PBMNCs = assay: cells; type: cell-based; details: Homo sapiens
Source text: Cells: Dexamethasone (Dex)-sensitive MM.1S (wild-type p53) and Dex-resistant MM.1R, RPMI 8226-Dox40 (doxorubicin resistant) and RPMI 8226-LR5 (melphalan resistant) human multiple myeloma (MM) cell lines were used. RPMI-8226 and U266 cells were obtained from the American Type Culture Collection (Rockville, Md.). SU-DHL-4 cells were also utilized. Fresh peripheral blood mononuclear cells (PBMNCs) were obtained from healthy subjects after informed consent. The PBMNC were separated from heparinized peripheral blood by Ficoll-Hipaque density sedimentation. BM specimens were acquired from patients with MM after obtaining informed consent and mononuclear cells were separated by Ficoll-Hipaque density sedimentation. […]
Reagents: Honokiol (HNK; Calbiochem, San Diego, Calif.) was dissolved in ethanol at 20 mg/ml stock solution. […] Absorbance readings at a wavelength of 450 nm were taken on a spectrophotometer (Molecular Devices Corp., Sunnyvale, Calif.).
HNK inhibits growth of MM cell lines. To identify the therapeutic potential of HNK, MM cell lines and normal PBMNCs were cultured at indicated concentration with HNK for 48 h, and growth was determined by calorimetric assays. […] FIGS. 6A and B show growth inhibition in MM cell lines by HNK as assessed by calorimetric assay after 48 h-culture. […]

rat papillary muscles = assay: glucose uptake by insulin
[1] = system: phospholipase D in SVR cells; assay: phospholipase D activity; type: cell-based; details: 0.5% and 10% serum
Source text: Honokiol analogs can stimulate tumor and endothelial cell apoptosis through inhibition of PLD activity. […] Treatment with […] causes downregulation of S6kinase phosphorylation in a time and dose dependent fashion, as well as downregulation of akt. Thus, honokiol mimics several of the activities of wild type tuberin.

[2] = system: apoptosis-related proteins in MCF-7 cells; assay: Western blot of apoptosis-related proteins; type: cell-based; details: 24 h
Experimental: Following treatment, the cells were harvested and stained for PI and annexin V, as described in Example 9. (B) is a bar graph in which the results of three independent experiments (HNK 60 μM, 24 h) are shown. Asterix indicates p<0.05. (C) is a series of photographs of the Western blots in which MCF-7 cells were treated with HNK (20 or 40 μM, 24 h), lysed and analyzed by Western blotting for the expression of apoptosis-related proteins.
Western blot analysis: Cells were harvested and lysed for total protein extraction in a buffer containing 50 mM Tris-Cl pH 7.4, 150 mM NaCl and 2% NP-40 together with a protease inhibitor cocktail (Comp). […] Immunoactivity was detected with horseradish peroxidase-conjugated secondary antibody and visualized by Enhanced Chemiluminescence (Pierce, Rockford, Ill.). Quantification of the results was performed using AlphaImager 2000 (Alpha Innotech, San Leandro, Calif.).
HNK induces apoptosis in breast cancer cell lines. […] MCF-7 cells were treated with HNK (60 μM for six or 24 hours) and apoptosis and cell death were assessed using annexin V and PI staining (FIG. 5 A). […] Upregulation of BAX was also noticed, (85% increase at 40 μM compared to control, as analyzed by densitometry) but no significant changes in BCL-2 or BAD levels were observed. […]

splenic B cells = assay: CD40 mediated cytokine production of splenic B cells from treated mice; type: in vivo, C57BL/6 or mCD40-LMP1 Tg mice; details: honokiol 3 mg/day, day 21-70
Experimental: CD40 mediated IL-6 and TNF-alpha production was also evaluated. […] IL-6 in culture supernatants was assessed by ELISA. Mice were assessed 70 days post-immunization with CII/CF or CFA only (or naïve). Some mice received honokiol (3 mg/day) from day 21-70 post-immunization. […] TNF-a in culture supermatants was assessed by ELISA. Mice were assessed 70 days post-immunization with CII/CF or CFA only (or naïve). Some mice received honokiol (3 mg/day) from day 21-70 post-immunization. […] In LMP1 Tg mice, even negative control mice have lowered IL-6 and TNF-alpha responses. However, IL-10 was not affected, as determined by analyzing the role of Honokiol treatment on B cell IL-10 production. […] IL-10 in culture supermatants was assessed by ELISA. Mice were assessed 70 days post-immunization with CII/CF or CFA only (or naïve). Some mice received honokiol (3 mg/day) from day 21-70 post-immunization.

In the case of `C=CCc1ccc(O)c(-c2ccc(O)c(CC=C)c2)c1` [HNK, Honokiol], the IC50 (normal PBMNCs) is reported as 40 to 80 µg/mL (≈ 150 to 300 µM), the “glucose uptake by insulin” value (rat papillary muscles) is reported as “potentiates glucose uptake by insulin” and the “activity of phospholipase D” value [1] is reported as “inhibits the activity of phospholipase D in both 0.5% and 10% serum”. The “Upregulation of BAX (densitometry), increase compared to control” value ([2]; MCF-7, 40 μM) was 85%, the “PARP and caspase 8 levels” value ([2]; MCF-7, 20 or 40 μM) was “degradation of poly (ADP-ribose) polymerase (PARP) and decreased levels of caspase 8” and the “CD40 mediated IL-6 production” value (splenic B cells) was “CD40 mediated IL-6 production is decreased”. For the same compound, the “CD40 mediated TNF-alpha production” value (splenic B cells) was “CD40 mediated TNF-alpha production is decreased”.
